Converted amounts (≈) assume the structure as drawn. Where two headings read alike, the source gives them in different places.
Legend:
[1] = Kinetic solubility by nephelometry; assay type: physicochemical
Protocol: Preliminary studies were conducted to assess the in vitro absorption, distribution, metabolism, and excretion (ADME) properties and in vivo mouse exposure of MMV1557817 following single oral dosing. Kinetic solubility was conducted using nephelometry based on a modification of a previously published method ([45]). Briefly, compound was dissolved in DMSO and spiked into either pH 6.5 phosphate buffer (to reflect the pH of the fasted state upper small intestine) or 0.01 M HCl (to reflect gastric pH 1.5–2) with a final DMSO concentration of 1% (vol/vol) and final concentrations ranging from 1 to 100 µg/mL. Samples were analyzed by nephelometry to determine the concentration above which precipitation occurred.

[2] = system: P. berghei ANKA; assay: P. berghei rodent malaria 4-day Peters' suppressive test; assay type: in vivo, P. berghei (Balb/c mice); settings: 50 mg/kg oral on days 0, 1, 2, 3 post-infection, read on day 4
Protocol: Female Balb/c mice at 6 weeks of age in groups of 4-5 were infected intraperitoneally with 2 × 10^7 P. berghei ANKA-infected erythrocytes. […] Parasitemia was assessed by visualizing Giemsa-stained thin blood smears by microscopy and a minimum of 1,000 RBCs was counted. […] University Animal Ethics Committee.

[3] = system: Pf3D7; assay: Parasite reduction ratio assay; assay type: cell-based, P. falciparum
Protocol: Assays were performed as described previously with some alterations ([37]). […] Specifically, media containing compound was placed in wells every 24 h for up 120 h. […] Parasite growth was measured at day 21 using SYBR green I as described above. Fluorescence was used to determine at what treatment day wells became positive for growth when compared with the well before it; greater than double the fluorescence was determined to be a positive well. […] Experiments were performed in two or three biological replicates in quadruplicate.

[4] = target: T1, HDAC1 (Homo sapiens, UniProt Q13547); assay: Eurofins Cerep safety pharmacology screening; assay type: biochemical; settings: read-out: Mean % inhibition (n=2); HDAC1, 10 µM
T1 construct: Eurofins Cerep (contract screen)
Source text: (§1) Results showing any inhibition or stimulation higher than 50% are considered to represent significant effects of the test compounds.

[5] = target: T2, MMP-3 (Homo sapiens, UniProt P08254); assay: Eurofins Cerep safety pharmacology screening; assay type: biochemical; settings: read-out: Mean % inhibition (n=2); MMP-3, 10 µM
T2 construct: Eurofins Cerep (contract screen)
T2 sequence (P08254 100-477): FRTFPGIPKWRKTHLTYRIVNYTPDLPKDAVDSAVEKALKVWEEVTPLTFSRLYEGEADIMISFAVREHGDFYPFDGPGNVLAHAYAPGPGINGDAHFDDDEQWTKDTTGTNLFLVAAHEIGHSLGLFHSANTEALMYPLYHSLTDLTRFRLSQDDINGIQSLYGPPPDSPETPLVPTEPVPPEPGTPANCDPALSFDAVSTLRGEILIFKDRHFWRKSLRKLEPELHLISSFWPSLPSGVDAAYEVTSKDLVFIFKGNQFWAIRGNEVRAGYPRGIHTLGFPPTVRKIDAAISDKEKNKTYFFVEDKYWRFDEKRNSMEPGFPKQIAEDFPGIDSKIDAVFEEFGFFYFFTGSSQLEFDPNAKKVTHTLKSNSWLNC
Source text: as §1

[6] = target: T3, HDAC7 (Homo sapiens, UniProt Q8WUI4); assay: Eurofins Cerep safety pharmacology screening; assay type: biochemical; settings: read-out: Mean % inhibition (n=2); HDAC7, 10 µM
T3 construct: Eurofins Cerep (contract screen)
Source text: as §1

[7] = target: T4, HDAC5 (Homo sapiens, UniProt Q9UQL6); assay: Eurofins Cerep safety pharmacology screening; assay type: biochemical; settings: read-out: Mean % inhibition (n=2); HDAC5, 10 µM
T4 construct: Eurofins Cerep (contract screen)
T4 sequence (Q9UQL6 whole entry): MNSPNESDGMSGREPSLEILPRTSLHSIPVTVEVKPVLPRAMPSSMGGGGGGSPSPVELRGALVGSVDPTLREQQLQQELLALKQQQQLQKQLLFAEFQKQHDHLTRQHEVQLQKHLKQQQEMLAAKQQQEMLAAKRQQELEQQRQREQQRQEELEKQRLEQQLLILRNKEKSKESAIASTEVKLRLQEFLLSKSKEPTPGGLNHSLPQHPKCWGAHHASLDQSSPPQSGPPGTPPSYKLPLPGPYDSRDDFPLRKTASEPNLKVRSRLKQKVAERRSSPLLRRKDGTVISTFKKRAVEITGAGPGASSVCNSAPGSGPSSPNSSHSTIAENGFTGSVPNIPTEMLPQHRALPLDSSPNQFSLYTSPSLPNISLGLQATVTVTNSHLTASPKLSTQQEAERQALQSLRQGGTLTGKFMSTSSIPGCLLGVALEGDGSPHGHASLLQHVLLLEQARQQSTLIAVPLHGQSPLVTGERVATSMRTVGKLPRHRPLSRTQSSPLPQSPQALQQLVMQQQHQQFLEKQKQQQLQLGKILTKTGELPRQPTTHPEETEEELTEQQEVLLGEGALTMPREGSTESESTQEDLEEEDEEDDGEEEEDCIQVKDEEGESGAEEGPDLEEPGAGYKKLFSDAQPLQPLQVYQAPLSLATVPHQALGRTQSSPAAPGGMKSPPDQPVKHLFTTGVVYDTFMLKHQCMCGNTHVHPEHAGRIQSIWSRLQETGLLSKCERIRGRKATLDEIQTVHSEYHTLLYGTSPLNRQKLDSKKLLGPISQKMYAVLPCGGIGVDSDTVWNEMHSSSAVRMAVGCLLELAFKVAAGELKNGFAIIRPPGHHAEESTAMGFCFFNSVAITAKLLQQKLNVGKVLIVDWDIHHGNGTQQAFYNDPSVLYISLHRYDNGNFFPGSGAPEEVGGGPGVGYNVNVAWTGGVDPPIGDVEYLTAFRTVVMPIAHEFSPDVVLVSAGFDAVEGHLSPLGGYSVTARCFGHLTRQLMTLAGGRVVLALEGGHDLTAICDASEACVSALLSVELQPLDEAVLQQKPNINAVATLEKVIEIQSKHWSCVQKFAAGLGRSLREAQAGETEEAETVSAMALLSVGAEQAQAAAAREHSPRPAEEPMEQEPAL
Source text: as §1

[8] = target: T5, MMP-9 (Homo sapiens, UniProt P14780); assay: Eurofins Cerep safety pharmacology screening; assay type: biochemical; settings: read-out: Mean % inhibition (n=2); MMP-9, 10 µM
T5 construct: Eurofins Cerep (contract screen)
Source text: as §1

[9] = target: T6, MMP-2 (Homo sapiens, UniProt P08253); assay: Eurofins Cerep safety pharmacology screening; assay type: biochemical; settings: read-out: Mean % inhibition (n=2); MMP-2, 10 µM
T6 construct: Eurofins Cerep (contract screen)
T6 sequence (P08253 110-660): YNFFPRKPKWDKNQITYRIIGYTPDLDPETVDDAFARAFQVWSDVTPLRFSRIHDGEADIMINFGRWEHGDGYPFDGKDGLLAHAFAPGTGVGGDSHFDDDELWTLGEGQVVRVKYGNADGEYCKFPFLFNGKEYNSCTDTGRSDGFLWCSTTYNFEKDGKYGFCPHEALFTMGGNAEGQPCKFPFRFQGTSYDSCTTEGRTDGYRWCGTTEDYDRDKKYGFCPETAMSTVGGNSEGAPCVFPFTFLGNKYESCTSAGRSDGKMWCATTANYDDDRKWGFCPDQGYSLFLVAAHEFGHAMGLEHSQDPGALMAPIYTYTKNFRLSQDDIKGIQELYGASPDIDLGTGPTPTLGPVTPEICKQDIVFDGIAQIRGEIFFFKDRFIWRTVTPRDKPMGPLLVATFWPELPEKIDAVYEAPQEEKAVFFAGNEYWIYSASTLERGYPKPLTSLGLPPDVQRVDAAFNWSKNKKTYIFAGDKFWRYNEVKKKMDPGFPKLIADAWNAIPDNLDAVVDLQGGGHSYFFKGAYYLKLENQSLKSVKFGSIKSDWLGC
Source text: as §1

[10] = target: T7, HDAC8 (Homo sapiens, UniProt Q9BY41); assay: Eurofins Cerep safety pharmacology screening; assay type: biochemical; settings: read-out: Mean % inhibition (n=2); HDAC8, 10 µM
T7 construct: Eurofins Cerep (contract screen)
T7 sequence (Q9BY41 whole entry): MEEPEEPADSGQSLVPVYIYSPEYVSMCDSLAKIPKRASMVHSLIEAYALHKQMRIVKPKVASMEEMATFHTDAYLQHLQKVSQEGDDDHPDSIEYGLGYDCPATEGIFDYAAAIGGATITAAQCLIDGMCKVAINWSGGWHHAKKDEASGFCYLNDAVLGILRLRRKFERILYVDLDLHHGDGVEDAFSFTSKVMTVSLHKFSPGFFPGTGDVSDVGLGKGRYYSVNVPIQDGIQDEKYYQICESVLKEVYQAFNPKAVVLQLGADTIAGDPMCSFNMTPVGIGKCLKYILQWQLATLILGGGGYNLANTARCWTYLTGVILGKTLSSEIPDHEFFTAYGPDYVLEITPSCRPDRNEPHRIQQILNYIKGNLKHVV
Source text: as §1

[11] = target: T8, MMP-14 (Homo sapiens, UniProt P50281); assay: Eurofins Cerep safety pharmacology screening; assay type: biochemical; settings: read-out: Mean % inhibition (n=2); MMP-14, 10 µM
T8 construct: Eurofins Cerep (contract screen)
Source text: as §1

[12] = target: T9, MMP-8 (Homo sapiens, UniProt P22894); assay: Eurofins Cerep safety pharmacology screening; assay type: biochemical; settings: read-out: Mean % inhibition (n=2), MMP-8, 10 µM
T9 construct: Eurofins Cerep (contract screen)
Source text: as §1

[13] = target: T10, HDAC2 (Homo sapiens, UniProt Q92769); assay: Eurofins Cerep safety pharmacology screening; assay type: biochemical; settings: read-out: Mean % inhibition (n=2); HDAC2, 10 µM
T10 construct: Eurofins Cerep (contract screen)
T10 sequence (Q92769 whole entry): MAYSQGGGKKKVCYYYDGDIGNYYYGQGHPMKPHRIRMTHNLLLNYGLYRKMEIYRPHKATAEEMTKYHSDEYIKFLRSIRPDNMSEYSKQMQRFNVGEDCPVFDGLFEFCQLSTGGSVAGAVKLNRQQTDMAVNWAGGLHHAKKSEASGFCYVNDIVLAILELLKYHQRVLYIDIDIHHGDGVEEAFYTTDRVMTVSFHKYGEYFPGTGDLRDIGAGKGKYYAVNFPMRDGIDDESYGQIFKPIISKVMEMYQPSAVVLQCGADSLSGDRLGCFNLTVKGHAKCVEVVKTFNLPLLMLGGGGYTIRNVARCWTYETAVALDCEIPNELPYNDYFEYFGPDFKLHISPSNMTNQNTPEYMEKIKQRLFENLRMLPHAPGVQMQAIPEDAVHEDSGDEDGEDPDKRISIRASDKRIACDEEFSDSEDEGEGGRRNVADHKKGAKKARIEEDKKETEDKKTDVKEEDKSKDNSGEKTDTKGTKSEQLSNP
Source text: as §1

[14] = target: T11, MMP-7 (Homo sapiens, UniProt P09237); assay: Eurofins Cerep safety pharmacology screening; assay type: biochemical; settings: read-out: Mean % inhibition (n=2); MMP-7, 10 µM
T11 construct: Eurofins Cerep (contract screen)
T11 sequence (P09237 95-267): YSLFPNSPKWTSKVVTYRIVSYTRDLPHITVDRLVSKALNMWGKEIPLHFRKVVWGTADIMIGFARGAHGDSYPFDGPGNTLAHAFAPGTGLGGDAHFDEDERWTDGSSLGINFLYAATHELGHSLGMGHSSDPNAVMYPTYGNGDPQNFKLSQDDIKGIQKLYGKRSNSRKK
Source text: as §1

[15] = target: T12, HDAC10 (Homo sapiens, UniProt Q969S8); assay: Eurofins Cerep safety pharmacology screening; assay type: biochemical; settings: read-out: Mean % inhibition (n=2); HDAC10, 10 µM
T12 construct: Eurofins Cerep (contract screen)
T12 sequence (Q969S8 whole entry): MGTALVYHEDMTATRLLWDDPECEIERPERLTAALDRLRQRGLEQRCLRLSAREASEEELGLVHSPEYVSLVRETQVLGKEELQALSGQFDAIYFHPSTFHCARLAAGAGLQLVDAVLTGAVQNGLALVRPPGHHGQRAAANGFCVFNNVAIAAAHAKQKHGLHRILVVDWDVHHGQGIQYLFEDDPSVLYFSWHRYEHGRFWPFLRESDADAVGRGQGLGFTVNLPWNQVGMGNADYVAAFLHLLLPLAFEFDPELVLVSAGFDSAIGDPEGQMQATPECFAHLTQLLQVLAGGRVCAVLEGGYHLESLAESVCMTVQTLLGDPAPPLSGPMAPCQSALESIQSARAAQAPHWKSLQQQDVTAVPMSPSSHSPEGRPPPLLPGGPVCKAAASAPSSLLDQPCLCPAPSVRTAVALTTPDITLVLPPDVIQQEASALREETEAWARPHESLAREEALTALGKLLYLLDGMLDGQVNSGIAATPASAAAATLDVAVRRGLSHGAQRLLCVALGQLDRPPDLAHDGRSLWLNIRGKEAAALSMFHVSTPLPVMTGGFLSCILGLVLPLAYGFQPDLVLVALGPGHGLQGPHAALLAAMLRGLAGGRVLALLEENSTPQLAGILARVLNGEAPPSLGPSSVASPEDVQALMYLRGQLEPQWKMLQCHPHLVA
Source text: as §1

[16] = target: T13, HDAC9 (Homo sapiens, UniProt Q9UKV0); assay: Eurofins Cerep safety pharmacology screening; assay type: biochemical; settings: read-out: Mean % inhibition (n=2); HDAC9, 10 µM
T13 construct: Eurofins Cerep (contract screen)
T13 sequence (Q9UKV0 whole entry): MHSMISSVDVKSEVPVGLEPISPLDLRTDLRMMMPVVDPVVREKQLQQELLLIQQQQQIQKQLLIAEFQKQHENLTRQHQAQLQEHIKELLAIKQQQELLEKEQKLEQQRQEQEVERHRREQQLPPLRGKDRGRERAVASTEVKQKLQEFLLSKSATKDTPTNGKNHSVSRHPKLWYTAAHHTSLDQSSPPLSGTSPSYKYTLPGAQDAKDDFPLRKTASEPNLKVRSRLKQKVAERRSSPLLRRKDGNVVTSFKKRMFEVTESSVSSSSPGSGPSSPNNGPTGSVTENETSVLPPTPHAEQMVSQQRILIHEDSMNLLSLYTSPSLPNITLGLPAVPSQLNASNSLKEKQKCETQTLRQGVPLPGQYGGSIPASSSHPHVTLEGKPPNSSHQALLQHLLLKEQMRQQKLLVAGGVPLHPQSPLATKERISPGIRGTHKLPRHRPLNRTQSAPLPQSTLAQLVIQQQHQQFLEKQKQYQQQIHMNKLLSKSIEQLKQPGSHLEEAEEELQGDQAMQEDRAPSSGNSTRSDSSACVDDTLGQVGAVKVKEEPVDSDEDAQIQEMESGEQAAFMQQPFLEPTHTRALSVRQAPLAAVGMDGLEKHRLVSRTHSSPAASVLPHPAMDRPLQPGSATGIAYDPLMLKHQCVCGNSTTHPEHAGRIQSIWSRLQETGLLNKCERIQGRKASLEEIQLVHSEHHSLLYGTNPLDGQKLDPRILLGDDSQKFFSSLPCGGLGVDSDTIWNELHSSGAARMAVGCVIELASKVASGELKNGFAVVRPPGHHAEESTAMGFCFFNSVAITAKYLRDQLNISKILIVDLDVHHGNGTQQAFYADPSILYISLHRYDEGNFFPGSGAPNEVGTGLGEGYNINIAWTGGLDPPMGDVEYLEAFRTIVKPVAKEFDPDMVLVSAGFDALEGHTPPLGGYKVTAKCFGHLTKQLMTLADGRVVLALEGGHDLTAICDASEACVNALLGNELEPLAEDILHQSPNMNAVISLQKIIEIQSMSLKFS
Source text: as §1

[17] = system: P. falciparum Dd2 parasites; assay: Fractional inhibitory concentration, artemisinin and MMV1557817 interaction; assay type: cell-based
Protocol: Fractional inhibitory concentrations (FIC) were determined as previously described ([44]). […] The FIC for each drug was determined by EC50 of drug in a mixture/EC50 of drug alone, and the sum of FIC was determined by the addition of the two individual FIC values. Synergistic FIC is described as <1, additive = 1 < 2, and antagonism > 2 ([44]).

[18] = system: MMP2, 7, 8, 9, and 13; parameters: method as in PMID 30537832; settings: tested up to 200 µM; cited from earlier work
[19] = Plasma protein binding by ultracentrifugation; assay type: in vitro ADME, human; settings: plasma (10% plasma diluted with PBS), pH 7.4
Protocol: Human plasma was obtained from the Volunteer Blood Donor Registry (Walter & Eliza Hall Institute, Melbourne, Australia), rat plasma was from male Sprague-Dawley rats (Animal Resource Centre, Perth, Western Australia) and mouse plasma was procured as described above. RPMI-1640 media supplemented with 25 mM HEPES, 2 g/L sodium bicarbonate, and 100 mg/L neomycin were additionally supplemented with 5 […] on the day prior to binding assessment. […] Additional aliquots of spiked matrix were maintained at 37°C for 4.2 h but not centrifuged to serve as controls for stability assessment and to obtain a measure of the total concentration in each matrix. Following centrifugation, aliquots of the protein-free supernatant and the non-centrifuged matrix controls were “matrix matched” by addition of an equal volume of the opposite medium (i.e., either blank buffer or blank matrix) and assayed as described above with comparison to calibration standards prepared in 50% matrix/50% PBS.

CC(C)(C)CC(=O)NC(C(=O)NO)c1ccc(-c2cc(F)c(F)c(F)c2)cc1 (stereo not drawn) [MMV1557817, N-(2-(hydroxyamino)−2-oxo-1-(3′,4′,5′-trifluoro-[1,1′-biphenyl]-4-yl)ethyl)-3,3-dimethylbutanamide]
solubility kinetic ([1]; pH 2.0 (0.01 M HCl)): 12.5 to 25 µg/mL (≈ 31.7 to 63.4 µM)
solubility kinetic ([1]; pH 6.5 phosphate buffer): 12.5 to 25 µg/mL (≈ 31.7 to 63.4 µM)
parasite reduction compared with vehicle control [2]: 95.4%
99.9% PCT ([3]; Pf3D7, 10× EC50): 86 h
Lag phase ([3]; Pf3D7, 10× EC50): 72 h
Log (PRR) ([3]; Pf3D7, 10× EC50, over one cycle): 2.2 ± 0.2
inhibition at 10 µM [4]: 2.8%
inhibition at 10 µM [5]: -0.8%
inhibition at 10 µM [6]: 7.7%
inhibition at 10 µM [7]: -2.8%
inhibition at 10 µM [8]: 46.3%
inhibition at 10 µM [9]: 39.8%
inhibition at 10 µM [10]: 6.3%
inhibition at 10 µM [11]: 24.1%
inhibition at 10 µM [12]: 52.6%
inhibition at 10 µM [13]: 3%
inhibition at 10 µM [14]: -6.7%
inhibition at 10 µM [15]: 5.3%
inhibition at 10 µM [16]: -3.6%
MMV1557817 mean FIC ± SEM ([17]; ratio MMV1557817:artemisinin 1:4): 0.87 ± 0.08
MMV1557817 mean FIC ± SEM ([17]; ratio MMV1557817:artemisinin 2:3): 1.13 ± 0.19
MMV1557817 mean FIC ± SEM ([17]; ratio MMV1557817:artemisinin 3:2): 1.10 ± 0.20
MMV1557817 mean FIC ± SEM ([17]; ratio MMV1557817:artemisinin 4:1): 1.05 ± 0.18
MMV1557817 mean FIC ± SEM ([17]; ratio MMV1557817:artemisinin 5:0): 1.00 ± 0.19
off-target inhibition [18]: limited off-target inhibitory affects
fraction unbound at 4.2 h ([19]; Sprague-Dawley (rat plasma), human, summary in text over the plasma species tested, read-out: bound to plasma proteins): 0.01 to 0.02
fraction unbound at 4.2 h ([19]; human plasma, read-out: Plasma protein binding (converted)): 0.012

From paper PMC11237774, “On-target, dual aminopeptidase inhibition provides cross-species antimalarial activity” (mBio, 2024)
